Test results from the supplement of paper PMC10307832.

Legend:
Test in all cases: relative viability (nuclei count vs DMSO), 5 days (fraction); higher = more cells survive
A-427 = test system: A-427
Procedure, shortened: (§1)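 Relative viability was taken as the ratio of nuclei in treated wells to nuclei in vehicle wells. Lung cancer cell lines in 1536-well plates received compounds by pin tool one day after seeding, either one drug alone or a fixed anchor-drug dose plus five library-drug doses (not always all listed) in √10 steps. Nuclei were counted on 4× images after 5 days of treatment, and values are medians of duplicate plates.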

ABC-1 = test system: ABC-1
Procedure, shortened: as §1

COR-L23 = test system: COR-L23
Procedure, shortened: as §1

EMC-BAC-2 = test system: EMC-BAC-2
Procedure, shortened: as §1

HARA = test system: HARA
Procedure, shortened: as §1

HCC-15 = test system: HCC-15
Procedure, shortened: as §1

HCC-366 = test system: HCC-366
Procedure, shortened: as §1

HCC-78 = test system: HCC-78
Procedure, shortened: as §1

LC-2-ad = test system: LC-2-ad
Procedure, shortened: as §1

NCI-H1734 = test system: NCI-H1734
Procedure, shortened: as §1

NCI-H1793 = test system: NCI-H1793
Procedure, shortened: as §1

NCI-H1944 = test system: NCI-H1944
Procedure, shortened: as §1

NCI-H1993 = test system: NCI-H1993
Procedure, shortened: as §1

NCI-H2009 = test system: NCI-H2009
Procedure, shortened: as §1

NCI-H2023 = test system: NCI-H2023
Procedure, shortened: as §1

NCI-H2126 = test system: NCI-H2126
Procedure, shortened: as §1

NCI-H2228 = test system: NCI-H2228
Procedure, shortened: as §1

NCI-H23 = test system: NCI-H23
Procedure, shortened: as §1

NCI-H2405 = test system: NCI-H2405
Procedure, shortened: as §1

NCI-H838 = test system: NCI-H838
Procedure, shortened: as §1

SK-LU-1 = test system: SK-LU-1
Procedure, shortened: as §1

UMC-11 = test system: UMC-11
Procedure, shortened: as §1

**Q.** Which relative viability (A-427; first compound 0.04 µM) does the source give for O=C(O)c1ccc(-c2c[nH]c3ncc(-c4ccccc4)cc23)cc1C1CCCC1 + C[C@]1(O)C[C@@H](c2nc(-c3ccc4ccc(-c5ccccc5)nc4c3)c3c(N)nccn32)C1 [Linsitinib] (partner 1 µM) here?
**A.** Its relative viability is 1.14.

**Q.** What about the relative viability (A-427; first compound 0.1265 µM) of the same molecule?
**A.** Its relative viability is 1.1.

**Q.** What about the relative viability (A-427; first compound 0.4 µM) of the same molecule?
**A.** Its relative viability is 1.05.

**Q.** And the relative viability (A-427; first compound 1.265 µM)?
**A.** Its relative viability is 0.865.

**Q.** And the relative viability (ABC-1; first compound 0.04 µM)?
**A.** Its relative viability is 0.753.

**Q.** And the relative viability (ABC-1; first compound 0.1265 µM)?
**A.** Its relative viability is 0.808.

**Q.** What about the relative viability (ABC-1; first compound 0.4 µM) of the same molecule?
**A.** The relative viability was 0.962.

**Q.** And the relative viability (ABC-1; first compound 1.265 µM)?
**A.** The relative viability was 0.716.

**Q.** What about the relative viability (COR-L23; first compound 0.04 µM) of the same molecule?
**A.** The relative viability was 0.866.

**Q.** What about the relative viability (COR-L23; first compound 0.1265 µM) of the same molecule?
**A.** The relative viability was 0.951.

**Q.** And the relative viability (COR-L23; first compound 0.4 µM)?
**A.** The relative viability was 0.771.

**Q.** What about the relative viability (COR-L23; first compound 1.265 µM) of the same molecule?
**A.** The relative viability was 0.444.

**Q.** What about the relative viability (EMC-BAC-2; first compound 0.04 µM) of the same molecule?
**A.** The relative viability was 0.823.

**Q.** And the relative viability (EMC-BAC-2; first compound 0.1265 µM)?
**A.** Its relative viability is 0.866.

**Q.** And the relative viability (EMC-BAC-2; first compound 0.4 µM)?
**A.** The relative viability was 0.819.

**Q.** What about the relative viability (EMC-BAC-2; first compound 1.265 µM) of the same molecule?
**A.** Its relative viability is 0.79.

**Q.** What about the relative viability (HARA; first compound 0.04 µM) of the same molecule?
**A.** Its relative viability is 0.905.

**Q.** And the relative viability (HARA; first compound 0.1265 µM)?
**A.** Its relative viability is 0.983.

**Q.** And the relative viability (HARA; first compound 0.4 µM)?
**A.** Its relative viability is 0.994.

**Q.** What about the relative viability (HARA; first compound 1.265 µM) of the same molecule?
**A.** Its relative viability is 0.748.

**Q.** What about the relative viability (HCC-15; first compound 0.04 µM) of the same molecule?
**A.** Its relative viability is 0.869.

**Q.** What about the relative viability (HCC-15; first compound 0.1265 µM) of the same molecule?
**A.** The relative viability was 0.928.

**Q.** What about the relative viability (HCC-15; first compound 0.4 µM) of the same molecule?
**A.** The relative viability was 0.785.

**Q.** What about the relative viability (HCC-15; first compound 1.265 µM) of the same molecule?
**A.** Its relative viability is 0.567.

**Q.** And the relative viability (HCC-366; first compound 0.04 µM)?
**A.** Its relative viability is 0.657.

**Q.** What about the relative viability (HCC-366; first compound 0.1265 µM) of the same molecule?
**A.** The relative viability was 0.759.

**Q.** What about the relative viability (HCC-366; first compound 0.4 µM) of the same molecule?
**A.** The relative viability was 0.882.

**Q.** And the relative viability (HCC-366; first compound 1.265 µM)?
**A.** The relative viability was 0.573.

**Q.** And the relative viability (HCC-78; first compound 0.04 µM)?
**A.** The relative viability was 0.431.

**Q.** What about the relative viability (HCC-78; first compound 0.1265 µM) of the same molecule?
**A.** The relative viability was 0.571.

**Q.** And the relative viability (HCC-78; first compound 0.4 µM)?
**A.** The relative viability was 0.545.

**Q.** And the relative viability (HCC-78; first compound 1.265 µM)?
**A.** Its relative viability is 0.534.

**Q.** And the relative viability (LC-2-ad; first compound 0.04 µM)?
**A.** The relative viability was 0.81.

**Q.** What about the relative viability (LC-2-ad; first compound 0.1265 µM) of the same molecule?
**A.** Its relative viability is 0.885.

**Q.** What about the relative viability (LC-2-ad; first compound 0.4 µM) of the same molecule?
**A.** The relative viability was 0.775.

**Q.** And the relative viability (LC-2-ad; first compound 1.265 µM)?
**A.** Its relative viability is 0.425.

**Q.** And the relative viability (NCI-H1734; first compound 0.04 µM)?
**A.** Its relative viability is 0.917.

**Q.** And the relative viability (NCI-H1734; first compound 0.1265 µM)?
**A.** Its relative viability is 0.938.

**Q.** What about the relative viability (NCI-H1734; first compound 0.4 µM) of the same molecule?
**A.** Its relative viability is 0.816.

**Q.** What about the relative viability (NCI-H1734; first compound 1.265 µM) of the same molecule?
**A.** The relative viability was 0.823.

**Q.** And the relative viability (NCI-H1793; first compound 0.04 µM)?
**A.** The relative viability was 0.909.

**Q.** What about the relative viability (NCI-H1793; first compound 0.1265 µM) of the same molecule?
**A.** Its relative viability is 0.986.

**Q.** And the relative viability (NCI-H1793; first compound 0.4 µM)?
**A.** Its relative viability is 1.09.

**Q.** And the relative viability (NCI-H1793; first compound 1.265 µM)?
**A.** Its relative viability is 0.889.

**Q.** And the relative viability (NCI-H1944; first compound 0.04 µM)?
**A.** The relative viability was 1.18.

**Q.** And the relative viability (NCI-H1944; first compound 0.1265 µM)?
**A.** Its relative viability is 1.39.

**Q.** What about the relative viability (NCI-H1944; first compound 0.4 µM) of the same molecule?
**A.** The relative viability was 1.04.

**Q.** And the relative viability (NCI-H1944; first compound 1.265 µM)?
**A.** The relative viability was 1.02.

**Q.** What about the relative viability (NCI-H1993; first compound 0.04 µM) of the same molecule?
**A.** The relative viability was 0.745.

**Q.** What about the relative viability (NCI-H1993; first compound 0.4 µM) of the same molecule?
**A.** The relative viability was 0.681.

**Q.** What about the relative viability (NCI-H1993; first compound 1.265 µM) of the same molecule?
**A.** The relative viability was 0.753.

**Q.** What about the relative viability (NCI-H2009; first compound 0.04 µM) of the same molecule?
**A.** The relative viability was 1.23.

**Q.** What about the relative viability (NCI-H2009; first compound 0.1265 µM) of the same molecule?
**A.** The relative viability was 1.21.

**Q.** What about the relative viability (NCI-H2009; first compound 0.4 µM) of the same molecule?
**A.** The relative viability was 1.15.

**Q.** And the relative viability (NCI-H2009; first compound 1.265 µM)?
**A.** The relative viability was 1.08.

**Q.** And the relative viability (NCI-H2023; first compound 0.04 µM)?
**A.** Its relative viability is 0.699.

**Q.** And the relative viability (NCI-H2023; first compound 0.1265 µM)?
**A.** The relative viability was 0.665.

**Q.** What about the relative viability (NCI-H2023; first compound 0.4 µM) of the same molecule?
**A.** Its relative viability is 0.734.

**Q.** What about the relative viability (NCI-H2023; first compound 1.265 µM) of the same molecule?
**A.** Its relative viability is 0.676.

**Q.** What about the relative viability (NCI-H2126; first compound 0.04 µM) of the same molecule?
**A.** Its relative viability is 0.723.

**Q.** And the relative viability (NCI-H2126; first compound 0.1265 µM)?
**A.** The relative viability was 0.732.

**Q.** And the relative viability (NCI-H2126; first compound 0.4 µM)?
**A.** The relative viability was 0.7.

**Q.** What about the relative viability (NCI-H2126; first compound 1.265 µM) of the same molecule?
**A.** Its relative viability is 0.623.

**Q.** What about the relative viability (NCI-H2228; first compound 0.04 µM) of the same molecule?
**A.** Its relative viability is 0.726.

**Q.** And the relative viability (NCI-H2228; first compound 0.1265 µM)?
**A.** Its relative viability is 0.729.

**Q.** And the relative viability (NCI-H2228; first compound 0.4 µM)?
**A.** Its relative viability is 0.813.

**Q.** And the relative viability (NCI-H2228; first compound 1.265 µM)?
**A.** Its relative viability is 0.589.

**Q.** What about the relative viability (NCI-H23; first compound 0.04 µM) of the same molecule?
**A.** Its relative viability is 0.545.

**Q.** What about the relative viability (NCI-H23; first compound 0.1265 µM) of the same molecule?
**A.** Its relative viability is 0.617.

**Q.** And the relative viability (NCI-H23; first compound 0.4 µM)?
**A.** Its relative viability is 0.559.

**Q.** What about the relative viability (NCI-H23; first compound 1.265 µM) of the same molecule?
**A.** Its relative viability is 0.451.

**Q.** What about the relative viability (NCI-H2405; first compound 0.04 µM) of the same molecule?
**A.** Its relative viability is 0.916.

**Q.** And the relative viability (NCI-H2405; first compound 0.1265 µM)?
**A.** The relative viability was 0.932.

**Q.** What about the relative viability (NCI-H2405; first compound 0.4 µM) of the same molecule?
**A.** The relative viability was 0.908.

**Q.** What about the relative viability (NCI-H2405; first compound 1.265 µM) of the same molecule?
**A.** Its relative viability is 0.603.

**Q.** What about the relative viability (NCI-H838; first compound 0.04 µM) of the same molecule?
**A.** The relative viability was 1.03.

**Q.** What about the relative viability (NCI-H838; first compound 0.1265 µM) of the same molecule?
**A.** Its relative viability is 1.16.

**Q.** And the relative viability (NCI-H838; first compound 0.4 µM)?
**A.** Its relative viability is 1.09.

**Q.** And the relative viability (NCI-H838; first compound 1.265 µM)?
**A.** The relative viability was 0.997.

**Q.** What about the relative viability (SK-LU-1; first compound 0.04 µM) of the same molecule?
**A.** The relative viability was 1.06.

**Q.** And the relative viability (SK-LU-1; first compound 0.1265 µM)?
**A.** The relative viability was 1.

**Q.** What about the relative viability (SK-LU-1; first compound 0.4 µM) of the same molecule?
**A.** Its relative viability is 0.943.

**Q.** And the relative viability (SK-LU-1; first compound 1.265 µM)?
**A.** Its relative viability is 0.851.

**Q.** What about the relative viability (UMC-11; first compound 0.04 µM) of the same molecule?
**A.** The relative viability was 0.98.

**Q.** What about the relative viability (UMC-11; first compound 0.1265 µM) of the same molecule?
**A.** Its relative viability is 1.04.

**Q.** What about the relative viability (UMC-11; first compound 0.4 µM) of the same molecule?
**A.** Its relative viability is 1.07.

**Q.** What about the relative viability (UMC-11; first compound 1.265 µM) of the same molecule?
**A.** The relative viability was 0.971.
